Measured values reported in BindingDB's records for PubMed 36074125 (Purdue University, 2022).
pIC50: −log10 of the molar value.

Biological target: T1, N-terminal Xaa-Pro-Lys N-methyltransferase 1 (Homo sapiens, UniProt Q9BV86)
T1 sequence (Q9BV86 whole entry): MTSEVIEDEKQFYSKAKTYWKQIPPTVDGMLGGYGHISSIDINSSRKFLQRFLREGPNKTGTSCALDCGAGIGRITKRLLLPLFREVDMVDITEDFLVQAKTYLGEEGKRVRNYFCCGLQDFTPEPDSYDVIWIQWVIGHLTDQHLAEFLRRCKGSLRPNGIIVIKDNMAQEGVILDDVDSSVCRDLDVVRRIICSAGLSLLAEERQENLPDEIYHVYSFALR
Test: Inhibition of full length NTMT1 (1 to 222 residues) (unknown origin) expressed in Escherichia coli BL21 (DE3) using GPKRIA as substrate preincubated for 10 mins followed by substrate addition measured after 15 mins by microplate reader method

SMILES	pIC50
CC(C)(NC(=O)O[C@@H]1CN2CCC1CC2)c1csc(-c2ccc(Cl)cc2)n1	6.04
CC(C)(NC(=O)O[C@@H]1CN2CCC1CC2)c1csc(-c2ccc(C(F)(F)F)cc2)n1	5.49
